From patent US5159085A, “2-anilino phenylacetic acid derivatives as inhibitors of PLA2 and lipoxygenase” (American Home Products Corporation, priority 1991, dated 1992)
Read-outs that look alike come from different tables or passages of the source.

Assays:
human platelet PLA2 = molecular target: T1, human platelet PLA2 (Homo sapiens, UniProt P14555); test: In vitro isolated phospholipase A2 assay, human platelet PLA2 (arachidonic acid release from 3H-AA E. coli substrate); assay type: biochemical
T1 construct: Semipurified human platelet acid extract PLA2; from tissue; host or cells: human platelets (semipurified acid extract)
T1 sequence (P14555 21-144): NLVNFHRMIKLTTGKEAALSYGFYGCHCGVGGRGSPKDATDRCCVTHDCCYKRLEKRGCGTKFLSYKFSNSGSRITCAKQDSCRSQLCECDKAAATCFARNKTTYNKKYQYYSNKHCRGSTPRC

[1] = molecular target: T2, human synovial fluid PLA2 (Homo sapiens, UniProt P14555); test: In vitro isolated phospholipase A2 assay, human synovial fluid PLA2; assay type: biochemical
T2 construct: Purified human synovial fluid; from tissue; host or cells: human synovial fluid
T2 sequence (P14555 21-144): T1 sequence (P14555 21-144)
Experimental: The compounds of the invention are tested in an in vitro isolated phospholipase A2 assay to determine the ability of the test compounds to inhibit the release of arachidonic acid from an arachidonic acid-containing substrate by the action of phospholipase A2 enzyme from human and non-human sources.
(§1) This assay is carried out as follows:
Into a 15 mL polypropylene tube are added the following:
*pre-incubate at room temperature 30 min prior to substrate addition.
^5 Stock 10 mM prepared in dimethyl sulfoxide. Make 1:2 dilution with
dimethyl sulfoxide and add 1 μ L to 100 μL assay tube.
^6 Two human PLA2 enzymes are used:
b) Purified human synovial fluid.
Incubate the 100 μL reaction mixture for 10 minutes at 37° C. in a shaking water bath. The reaction is terminated by the addition of 2 mL tetrahydrofuran, followed by vortexing. NH2 columns (100 μg/mL--Analytichem International) are conditioned with 0.5 mL tetrahydrofuran followed by 0.5 mL tetrahydrofuran/water (2 mL:0.1 mL, v/v).
The sample is loaded onto the columns and slowly drawn through them. The hydrolyzed arachidonic acid retained in the columns is eluted therefrom with 1 mL tetrahydrofuran/glacial acetic acid (2%). The arachidonic acid is transferred to scintillation vials and quantitated by β-counting analysis. A "total counts" sample is prepared by pipetting 25 μL ^3 H-arachidonate E. coli directly into a scintillation vial to which is added 1 mL tetrahydrofuran. 10 mL aquasol (scintillation cocktail) is added to all samples. [formula]

[2] = tested on: paw edema induced by exogenous PLA2 (snake, A. piscivorus piscivorus); test: In vivo PLA2 murine paw edema assay; parameters: species or system mouse (male CD-1)
Experimental: The ability of the compounds of the invention to inhibit paw edema induced by the exogenous administration of PLA2 is measured in the in vivo PLA2 murine paw edema assay.
The assay is carried out as follows:
Non-fasted, male CD-1 mice (8 weeks old; 31-36 grams) are placed in plastic boxes in groups of six. The right hind paw volume is measured using mercury plethysmography (zero time). […] A solution of purified PLA2, from the diamond back cotton mouth snake (A. piscivorus piscivorus) is prepared in saline at a concentration of 6 μg/ml. Fifty (50) μl (0.3 μg) of this PLA2 solution is injected subcutaneously into the right hind paw with a plastic 1 ml plastic syringe (27 gauge, 1" needle). Paw volume of the injected paw is measured again at 10 minutes, 30 minutes and 60 minutes after PLA2 injection. Animals are euthanized with CO2 at the completion of the study.
The paw edema is calculated by subtracting the zero time volume from the volume recorded at each time period. Mean paw edema for each treatment group is then calculated and expressed as (μl±S.E.). Drug effects are expressed as a percent change from control (vehicle) values. Statistical significance is determined by a one-way analysis of variance with LSD comparison to control (p<0.05). ED50 's are determined using repression analysis.

6-keto-PGF1α /TxB2 = test: In vivo murine zymosan peritonitis assay, 6-keto-PGF1α (cyclooxygenase pathway); parameters: species or system mouse (male CD-1)
Experimental: The compounds of the invention are evaluated for their ability to inhibit the lipoxygenase and/or cyclooxygenase pathways of arachidonic acid metabolism in the in vivo murine zymosan peritonitis assay.
as §1
Male CD-1 mice (8 weeks old) are placed in plastic boxes in groups of six. Animals are injected with 1 ml i.p. of either 1% zymosan in pyrogen free 0.9% saline or saline (unstimulated control). Compounds are dosed orally 1 hour prior to zymosan injection. Twenty minutes after zymosan injection, the mice are asphyxiated by CO2 inhalation and the peritoneal cavity is lavaged with 2 ml ice cold Hanks Balanced Salt Solution (HBSS) without CaCl2, MgSO4 ·7H2 O and MgCL2 ·6H2 O. Peritoneal lavage fluid from each mouse is removed by syringe and placed in 5 ml plastic test tubes put on ice and volume is noted. Preparation of samples for evaluation by ELISA is as follows: Samples are centrifuged at 800×g for 15 minutes; 1 ml of the supernatant is added to 8 ml ice cold methanol and kept at -70° C. overnight to precipitate protein; and samples are then centrifuged at 800×g for 15 minutes, followed by a drying procedure in a Savant speed vac concentrator. The samples are reconstituted with 1 ml ice cold ELISA buffer and stored at -70° C. until assayed. The assay for eicosanoids (LTC4 and 6-keto-PGF1α) is performed according to conventional ELISA procedures.
Compounds to be tested orally are suspended in 0.5% Tween 80. Compounds to be tested intraperitoneally are suspended in 0.5% methylcellulose in 0.9% saline.
The total metabolite level in lavage fluid/mouse is calculated and the significance is determined by a one-way analysis of variance with LSD comparisons to control (p≤0.05). Drug effects are expressed as a percent change from control values.

carrageenan paw edema = test: Rat carrageenan paw edema assay; assay type: in vivo, rat (male Sprague-Dawley)
Experimental: The compounds of the invention are further tested in the rat carrageenan paw edema assay to determine their ability to inhibit the acute inflammatory response.
as §1
140-180 gm Male Sprague-Dawley rats, in groups of 6 animals are injected subcutaneously in the right paw with 0.1 ml of 1% carrageenan at zero time. Mercury plethysmographic readings (ml) of the paw are made at zero time and 3 hours later. Test compounds are suspended or dissolved in 0.5% methylcellulose and given perorally 1 hour prior to carrageenan administration.
The increase in paw volume (edema in ml) produced by the carrageenan is measured. Paw edema is calculated (3 hour volume minus zero time volume), and percent inhibition of edema is determined. Unpaired Student's t-test is used to determine statistical significance.

Question: What does the source list for `O=C(O)Cc1ccccc1Nc1c(Cl)cccc1Cl` [diclofenac, reference compound]?
Answer: inhibition at 10 µM (human platelet PLA2; read-out: % Inhibition at 10 μM HP): 23%; inhibition at 10 µM ([1]; read-out: % Inhibition at 10 μM HSF): 0%; % Change in Edema 10 min ([2]; 10 mg/kg i.v.): -19%; % Change in Edema 30 min ([2]; 10 mg/kg i.v.): -15%; % Change in Edema 60 min ([2]; 10 mg/kg i.v.): -1%; % Change in Edema 10 min ([2]; 100 mg/kg p.o.): -28%; % Change in Edema 30 min ([2]; 100 mg/kg p.o.): -38%; % Change in Edema 60 min ([2]; 100 mg/kg p.o.): -15%; ED50 (6-keto-PGF1α /TxB2; Mus musculus, po, read-out: ED50 6-keto-PGF): 0.77 mg/kg; % Inhibition (carrageenan paw edema; 0.5 mg/kg peroral): 15%; % Inhibition (carrageenan paw edema; 2.0 mg/kg peroral): 50%; % Inhibition (carrageenan paw edema; 8.0 mg/kg peroral): 75%; ED50 (carrageenan paw edema; Rattus norvegicus, po, 3 h): 2.3 mg/kg

Question: How did the inhibition at 10 µM (human platelet PLA2; 10 μM, Table IV, read-out: % Inhibition at a concentration of 10 μM, HP) turn out when `O=C(O)Cc1cc(OCc2ccc3ccccc3n2)ccc1Nc1c(Cl)cccc1Cl` [Example 2, 2-[(2,6-Dichlorophenyl)amino]-5-(2-quinolylmethoxy)benzene acetic acid] was run?
Answer: 12.7%

Question: And the inhibition at 10 µM ([1]; 10 μM, Table IV, read-out: % Inhibition at a concentration of 10 μM, HSF)?
Answer: 47.6%

Question: What about the IC50 ([1]; human synovial fluid) of the same compound?
Answer: 6.3 µM

Question: What about the “% Change in Edema 10 min” value ([2]; 10 mg/kg i.v.) of the same compound?
Answer: -45%

Question: What about the “% Change in Edema 30 min” value ([2]; 10 mg/kg i.v.) of the same compound?
Answer: -37%

Question: What about the “% Change in Edema 60 min” value ([2]; 10 mg/kg i.v.) of the same compound?
Answer: -32%

Question: And the “% Change in Edema 10 min” value ([2]; 100 mg/kg p.o.)?
Answer: -52%

Question: And the “% Change in Edema 30 min” value ([2]; 100 mg/kg p.o.)?
Answer: -48%

Question: What about the “% Change in Edema 60 min” value ([2]; 100 mg/kg p.o.) of the same compound?
Answer: -28%

Question: And the “% Inhibition 6-keto-PGF” value (6-keto-PGF1α /TxB2; 50 mg/kg p.o., negative values denote potentiation)?
Answer: -25%

Question: And the “% Inhibition 6-keto-PGF” value (6-keto-PGF1α /TxB2; 100 mg/kg p.o.)?
Answer: 65%

Question: And the “% Inhibition” value (carrageenan paw edema; 25 mg/kg peroral)?
Answer: 63%

Question: And the “% Inhibition” value (carrageenan paw edema; 50 mg/kg peroral)?
Answer: 58%

Question: What about the “% Inhibition” value (carrageenan paw edema; 100 mg/kg peroral) of the same compound?
Answer: 66%
